Experimental data from patent US9023853B2, “Janus kinase 2 (JAK2) inhibitor for the treatment of lupus” (Cephalon, Inc., priority 2010, dated 2015).

Tests used:
[1] = system: CXCL10/IP-10; assay: Serum CXCL10/IP-10 in NZM mice; assay type: in vivo, mouse
Experimental: (§1) For the processing of serum samples for cytokine analysis, frozen plasma at −80° C. was thawed on ice, vortexed, and centrifuged for 10 minutes to remove debris and aggregates. A total of 25-50 μL of serum was used for Luminex® assays following the manufacturer's instructions. Ten different mouse cytokines were measured using the mouse cytokine 10-plex bead kit (Invitrogen, Carlsbad, Calif., no. LMC0001). Briefly, filter plates (Millipore, Billerica, Mass., no. MAIPSWU10), were pre-wet with 200 μL of wash solution (kit component) and 25 μL of beads were added per well. […]
(§2) Age mated, female, NZM or NZW/LacJ, mice were matured for the study of lupus nephritis for a total of 7 months or 210 days at which time urine was collected for proteinuria detection. Mice with 0.5-1.0 mg/ml of urine protein as determined by an optical density-based total protein precipitation assay and cross-checked for 30-300 mg/dl of protein as determined by a stick assay were considered proteinuria positive and selected for study entry. […] End-stage lupus nephritis was evaluated by histopathology and scored by a board certified pathologist for the assessment of total renal damage in diseased animals using the scoring method described by Smith et al (Smith, Dong et al. 2007). […]

[2] = system: IL-6; assay: Serum IL-6 in NZM mice; assay type: in vivo, mouse
Experimental: as §1, §2

[3] = system: anti-chromatin antibody secreting cells (ASCs); assay: Anti-chromatin antibody secreting B-cell Elispot, MRL/lpr spleen; assay type: in vivo, mouse; settings: MRL/lpr mice; 100 mg/kg; p<0.001
Experimental: B-cell Elispot components were ordered from MabTech (Nacka Strand, Sweden) and nitrocellulose IP filter plates were ordered from Millipore (Billerica, Mass.). […] Spleens were processed using glass homogenization, filtered through a 60 μm sterile cell strainer and red blood cells (RBCs) lysed using BioLegend (San Diego, Calif.) lysis buffer. Processed splenocytes were added to each well in culture medium. To avoid skewing of true ex vivo frequencies of antibody secreting cell types (ASCs), cells were not stimulated with a polyclonal mitogen like LPS, but rather incubated in media alone to allow monitoring of genuine ex vivo antibody release. Anti-mouse pan-IgG was used as a positive control for total IgG producing ASCs and was used to normalize results. Frequencies for each antigen were identified in an initial test phase for each model. […] Different numbers of splenocytes were added for different antigens due to saturation limits of spot frequencies per well. These limits were previously established. B-cell Elispots were incubated overnight at 37° C. To develop each assay, secondary antibody was added to each well, incubated, washed and alkaline phosphatase strepavidin was used as the conjugate; substrate used was BCIP-NBT. Plates were developed until spots were visible. […]

[4] = mouse, in vivo
Description: MRL/lpr mice were first randomized, initial bleeds collected, and body weights recorded for baseline measurements (FIG. 1). All mice were individually ear tagged and were monitored throughout the entire experiment (e.g., “Group#-Cage letter-Mouse#”, so “3B5”=Group 3 (G3), cage B, mouse#5). Mice were age-matched and treatment started at 6-8 weeks of age. Cheek bleeds and urine collection continued weekly throughout the experiment. Mice were individually tracked for several parameters including cytokine and ANA levels, proteinuria, body mass, lymphomegaly, general health, and mortality. All parameters were evaluated bi-monthly except mortality which was monitored daily. All groups consisted of a minimum of at least 10-12 mice per group. Ex vivo experiments included flow cytometry analyses for plasma cells, serum complement C3 and ANA levels; urine protein and leukocytes, serum cytokine profiling, renal histo pathology, and determination of compound levels (pharmacokinetics (PK)) in the spleen, kidney and plasma. Mice were tracked on an individual basis. For all data, mice were grouped into populations and data graphed as mean±SEM. Bi-monthly observations and data collected were recorded for each group, except mortality which was performed daily. End-stage readouts were analyzed as described in the MATERIALS AND METHODS section (above) and in FIG. 1. […]

SMILES: CN1CCN(c2cccc(Nc3nc4c(-c5ccc(S(C)(=O)=O)cc5)cccn4n3)c2)CC1 [COMPOUND A, [8-(4-methanesulfonyl-phenyl)-[1,2,4]triazolo[1,5-a]pyridin-2-yl]-[3-(4-methyl-piperazin-1-yl)-phenyl]-amine]
- serum CXCL10/IP-10 decrease compared to vehicle ([1]; 55 mg/kg): 47.3%
- serum CXCL10/IP-10 decrease compared to vehicle ([1]; 100 mg/kg): 80.0%
- serum IL-6 decrease compared to vehicle ([2]; 55 mg/kg): 98.2%
- serum IL-6 decrease compared to vehicle ([2]; 100 mg/kg): 97.0%
- frequency of anti-chromatin ASCs in the spleen, decrease vs vehicle [3]: 89.1%
- overt toxicity [4]: overt toxicity was not observed
